# Assays:
# [1] = test system: PDOs derived from the 19006 patient; test: Patient derived organoid (PDO) viability, AlamarBlue, patient 19006; format: cell-based; settings: Homo sapiens, 192 h, ER-positive PDOs categorized into IntClust4, 19006 patient (FIGS. 52A and 52B), 8 days treatment, 'on the order of', units given within the value
# Procedure: FIGS. 52A and 52B provide viability curves of patient derived organoids derived from patient 19006, generated in accordance with various embodiments of the invention.
# (§1) To assess breast cancer PDOs, the organoids were digested into single cells with TrypLE (Gibco). Cells are strained with a 100 μm filter then seeded as 10,000 cells per well with 10 μl […] (BME) (Cultrex) in a black, clear bottom 96-well plate and covered with 100 μl breast organoid media. Cells are grown for 4 days to form small spheroids. Cells were treated with 6 concentrations of different targeted Therapies (including but not limited to capivasertib, ipatasertib, PF4706871, M2698, alpelisib), as well as negative control (DMSO) and positive control (Triton X-100) in duplicate for 8 days, with drug media refreshed on day 5. On day 8, the plates are manually checked under the microscope to ensure the positive control drug(s) had effectively killed organoids, and that organoids present in the negative control wells were healthy. Cell viability is assessed using AlamarBlue (Thermofisher) by adding the dye to the media in final concentration of 1:10, followed by incubation for 4 hours at 37° C., and […] measurement using a microplate reader (Molecular Devices). IC50 values are computed using R package drc. Averages of IC50s from two to three independent experiments were calculated and visualized using R.
# Likewise, capivasertib, ipatasertib, and M22698, but not alpelisib and PF4706871, each provide IC50 on the order of 100 nM to 10 μM for PDOs derived from the 19006 patient (FIGS. 53A and 53B).
# [2] = test system: patient derived organoids derived from patient 19004; test: Patient derived organoid (PDO) viability, AlamarBlue, FIGS. 53A and 53B; format: cell-based; settings: Homo sapiens, 192 h, ER-positive PDOs categorized into IntClust4, text says 19006 patient (FIGS. 53A and 53B), 8 days treatment, 'on the order of', units given within the value
# Procedure: FIGS. 53A and 53B provide viability curves of patient derived organoids derived from patient 19004, generated in accordance with various embodiments of the invention.
# as §1, with “IC50 values are computed using R package drc.” left out, “R. […]” for “R.”
# [3] = test system: patients with metastatic ER-positive breast cancer; test: Progression free survival by molecular subgroup in a prospective cohort of 812 patients; format: in vivo, human; settings: for progression free survival after endocrine therapy, high-risk vs lower risk integrative cluster groups: endocrine therapy (fulvestrant or tamoxifen), pooled, groups averaged together, FIG. 47, adj. P=0.0075
# From the text: The ability of chemotherapy, targeted therapies, and endocrine therapies on patients within particular molecular subgroups was examined in a prospective cohort of 812 patients with metastatic ER-positive breast cancer. Provided in FIG. […]
# [4] = general statement, no test described; cited from earlier work
smiles,measurement,setting,value
NC(=O)c1cccc2c(N[C@H](CN3CCC3)c3ccc(Cl)c(C(F)(F)F)c3)ncnc12 [M22698],IC50,[1],0.1 to 10 µM
same,IC50,[2],0.1 to 10 µM
Cc1nc(NC(=O)N2CCC[C@H]2C(N)=O)sc1-c1ccnc(C(C)(C)C(F)(F)F)c1 [alpelisib],IC50,[1],0.1 to 10 µM
CO[C@H]1C[C@@H]2CC[C@@H](C)[C@@](O)(O2)C(=O)C(=O)N2CCCC[C@H]2C(=O)O[C@H]([C@H](C)C[C@@H]2CC[C@@H](OCCO)[C@H](OC)C2)CC(=O)[C@H](C)/C=C(\C)[C@@H](O)[C@@H](OC)C(=O)[C@H](C)C[C@H](C)/C=C/C=C/C=C/1C [everolimus],"progression free survival probability, with vs without mTOR antagonist treatment","[3]; IntClust1 patients, FIG. 45, adj. P value=0.023",profoundly greater survival probability
C[C@]12CC[C@@H]3c4ccc(O)cc4C[C@@H](CCCCCCCCC[S+]([O-])CCCC(F)(F)C(F)(F)F)[C@H]3[C@@H]1CC[C@@H]2O (stereo partly drawn) [fulvestrant],"progression free survival probability, aromatase inhibitor vs fulvestrant treatment","[3]; IntClust1, IntClust2 and IntClust6 patients (averaged together), FIG. 48, adj. P value=0.004",patients receiving an aromatase inhibitor had greater survival probability than patients receiving fulvestrant
same,"progression free survival probability, fulvestrant vs aromatase inhibitor treatment","[3]; IntClust9 patients, FIG. 49, adj. P value=0.361","slightly, yet insignificantly, greater survival probability"
same,"progression free survival after endocrine therapy, high-risk vs lower risk integrative cluster groups",[3],lower risk groups have higher probability of progression free survival than high-risk groups
same,oral availability,[4],low
CC(C)NC[C@@H](C(=O)N1CCN(c2ncnc3c2[C@H](C)C[C@H]3O)CC1)c1ccc(Cl)cc1 [ipatasertib],IC50,[1],0.1 to 10 µM
same,IC50,[2],0.1 to 10 µM
CN(C)C(=O)c1cc2cnc(Nc3ccc(N4CCNCC4)cn3)nc2n1C1CCCC1 [ribociclib],"progression free survival probability, with vs without CDK4/6 antagonist treatment","[3]; IntClust2 patients, pooled CDK4/6 inhibitor group, FIG. 46, adj. P value=0.016",profoundly greater survival probability
CC/C(=C(\c1ccccc1)c1ccc(OCCN(C)C)cc1)c1ccccc1 [tamoxifen],"progression free survival after endocrine therapy, high-risk vs lower risk integrative cluster groups",[3],lower risk groups have higher probability of progression free survival than high-risk groups
